Experimental data from ChEMBL document CHEMBL1614632, “Trend analysis of a database of intravenous pharmacokinetic parameters in humans for 670 drug compounds” (Drug Metab Dispos, 2008).

Legend:
clinical [1] = conditions: human, in vivo, iv, Vdss
clinical [2] = conditions: human, in vivo, iv
clinical [3] = conditions: human, in vivo, iv; remark: listed apart in the source
clinical [4] = conditions: human, in vivo, iv, t1/2
clinical [5] = conditions: human, in vivo, iv, CL

| Compound | Vd (clinical [1]) | fraction unbound (clinical [2]) | MRT (clinical [3]) | half-life (clinical [4]) | clearance (clinical [5]) |
| --- | --- | --- | --- | --- | --- |
| C#C[C@]1(O)CC[C@H]2[C@@H]3CCc4cc(O)ccc4[C@H]3CC[C@@]21C [ETHINYL ESTRADIOL] | 4.3 L/kg | 0.014 | 11 h | 9.7 h | 7 mL/min/kg |
| CC(=O)Nc1nnc(S(N)(=O)=O)s1 [ACETAZOLAMIDE] | 0.37 L/kg | 0.04 | 9.5 h | 13 h | 0.65 mL/min/kg |
| CC1(C)S[C@@H]2[C@H](NC(=O)[C@H](NC(=O)N3CCN(S(C)(=O)=O)C3=O)c3ccccc3)C(=O)N2[C@H]1C(=O)O [MEZLOCILLIN] | 0.09 L/kg | 0.7 | 0.71 h | 1.2 h | 2.1 mL/min/kg |
| CNC(=O)c1cccc2c(Nc3ccc(NS(C)(=O)=O)cc3OC)c3cccc(C)c3nc12 [ASULACRINE] | 0.3 L/kg | 0.0011 | 1.9 h | 2.4 h | 2.6 mL/min/kg |
| C[C@@H]1CC(=O)NN=C1c1ccc(NN=C(C#N)C#N)cc1 [LEVOSIMENDAN] | 0.24 L/kg | 0.02 | 1.1 h | 1.1 h | 3.8 mL/min/kg |
| CCC[C@@H]1C[C@@H](C(=O)N[C@@H]([C@H]2O[C@H](SC)[C@H](O)[C@@H](O)[C@H]2O)[C@@H](C)O)N(C)C1 [LINCOMYCIN] | 1 L/kg | 0.14 | 7.5 h | 5.6 h | 2.1 mL/min/kg |
| NC[C@H]1O[C@H](O[C@H]2[C@H](O)[C@@H](O[C@H]3O[C@H](CO)[C@@H](O)[C@H](N)[C@H]3O)[C@H](N)C[C@@H]2N)[C@H](N)C[C@@H]1O [TOBRAMYCIN] | 0.23 L/kg | 1 | 2.4 h | 2 h | 1.6 mL/min/kg |
| Cc1ccccc1OCC(O)CNCCOc1ccc(C(N)=O)cc1 (centres undefined) [TOLAMOLOL] | 4 L/kg | 0.089 | 4.8 h | 2.5 h | 14 mL/min/kg |
| Cc1cn([C@H]2C=C[C@@H](CO)O2)c(=O)[nH]c1=O [STAVUDINE] | 0.67 L/kg | 1 | 1.4 h | 1.4 h | 8.2 mL/min/kg |
| CCCC(C)(COC(N)=O)COC(N)=O [MEPROBAMATE] | 0.7 L/kg | 1 | 19 h | 14 h | 0.6 mL/min/kg |
| CC(C)(O/N=C(\C(=O)N[C@@H]1C(=O)N2C(C(=O)[O-])=C(C[n+]3ccccc3)CS[C@H]12)c1csc(N)n1)C(=O)O [CEFTAZIDIME] | 0.31 L/kg | 0.79 | 2.2 h | – | 2.4 mL/min/kg |
| Oc1ccc2c(c1)[C@@]13CCCC[C@@]1(O)[C@@H](C2)N(CC1CCC1)CC3 [BUTORPHANOL] | 12 L/kg | 0.17 | 5.3 h | 4.8 h | 41 mL/min/kg |
| C=C1CC[C@@]2(O)[C@H]3Cc4ccc(O)c5c4[C@@]2(CCN3CC2CC2)[C@H]1O5 | 8.2 L/kg | 0.65 | 9.1 h | 8.8 h | 15 mL/min/kg |
| O.O=P(O)(O)C(O)(Cn1ccnc1)P(=O)(O)O [ZOLEDRONIC ACID] | 0.6 L/kg | 0.78 | 4.5 h | 11 h | 2.2 mL/min/kg |
| CN1CCc2cccc3c2[C@H]1Cc1ccc(O)c(O)c1-3 [APOMORPHINE] | 1.6 L/kg | 0.057 | – | – | 40 mL/min/kg |
| O=C1CCc2ccc(OCCCCN3CCN(c4cccc(Cl)c4Cl)CC3)cc2N1 [ARIPIPRAZOLE] | 4.9 L/kg | 0.01 | 98 h | 75 h | 0.83 mL/min/kg |
| C[C@H]1O[C@@H](O[C@H]2[C@@H](O)C[C@H](O[C@H]3[C@@H](O)C[C@H](O[C@H]4CC[C@@]5(C)[C@H](CC[C@@H]6[C@@H]5CC[C@]5(C)[C@@H](C7=CC(=O)OC7)CC[C@]65O)C4)O[C@@H]3C)O[C@@H]2C)C[C@H](O)[C@@H]1O [DIGITOXIN] | 0.44 L/kg | 0.066 | 170 h | – | 0.043 mL/min/kg |

| Compound | Vd (clinical [1]) | fraction unbound (clinical [2]) | MRT (clinical [3]) | half-life (clinical [4]) | clearance (clinical [5]) |
| --- | --- | --- | --- | --- | --- |
| N[C@@H](Cc1ccc(N(CCCl)CCCl)cc1)C(=O)O | 0.48 L/kg | 0.14 | 1.1 h | – | 7 mL/min/kg |
| NNC(=O)c1ccncc1 [ISONIAZID] | 0.82 L/kg | 1 | 1.8 h | – | 7.4 mL/min/kg |
| COc1ccccc1Oc1c(NS(=O)(=O)c2ccc(C(C)C)cn2)nc(-c2ccnc(-c3nnn[nH]3)c2)nc1OCCO [TEZOSENTAN] | 0.28 L/kg | 0.0085 | – | 3.8 h | 8.1 mL/min/kg |
| CCc1cccc2cc(C(O)CNC(C)(C)C)oc12 (centres undefined) [BUFURALOL] | – | 0.19 | 3.18 h | 2.3 h | 8.9 mL/min/kg |
| Nc1n[n+]([O-])c2ccccc2[n+]1[O-] [TIRAPAZAMINE] | 0.56 L/kg | 0.81 | 1 h | – | 8.9 mL/min/kg |
| CC#CCC(C)[C@H](O)/C=C/[C@@H]1[C@H]2C/C(=C/CCCC(=O)O)C[C@H]2C[C@H]1O (some centres undefined) [ILOPROST] | 0.37 L/kg | 0.4 | – | 0.57 h | 16 mL/min/kg |
| CCCCC(=O)N(Cc1ccc(-c2ccccc2-c2nnn[nH]2)cc1)[C@H](C(=O)O)C(C)C | – | 0.04 | 7.5 h | 9.5 h | 0.49 mL/min/kg |
| Cc1cccc(C)c1NC(=O)NCCCNC(C)C | – | 0.86 | 5.2 h | 5 h | 4.5 mL/min/kg |
| CC/C=C\C/C=C\C/C=C\C/C=C\C/C=C\C/C=C/CCC(=O)O[C@@H](C(=O)O[C@H]1C[C@@]2(O)[C@@H](OC(=O)c3ccccc3)C3[C@](C)(C(=O)[C@H](OC(C)=O)C(=C1C)C2(C)C)[C@@H](O)C[C@H]1OC[C@@]31OC(C)=O)[C@@H](NC(=O)c1ccccc1)c1ccccc1 (some centres undefined) [DHA PACLITAXEL] | – | 0.0038 | 45 h | 60 h | 0.025 mL/min/kg |
| Cc1onc(-c2c(F)cccc2Cl)c1C(=O)N[C@@H]1C(=O)N2[C@@H]1SC(C)(C)[C@@H]2C(=O)O [FLOXACILLIN] | 0.19 L/kg | 0.043 | 1.3 h | – | 2.4 mL/min/kg |
| COc1ccc2c3c1O[C@H]1[C@@H](O)C=C[C@H]4[C@@H](C2)N(C)CC[C@@]341 [CODEINE] | – | 0.7 | 3.9 h | 4 h | 15 mL/min/kg |
| CC[C@H](C)C[C@H](C)CCCCCCCCC(=O)N[C@H]1C[C@@H](O)[C@@H](NCCN)NC(=O)[C@@H]2[C@@H](O)CCN2C(=O)[C@H]([C@H](O)CCN)NC(=O)[C@H]([C@H](O)[C@@H](O)c2ccc(O)cc2)NC(=O)[C@@H]2C[C@@H](O)CN2C(=O)[C@H]([C@@H](C)O)NC1=O [CASPOFUNGIN] | 0.13 L/kg | 0.035 | 15 h | – | 0.14 mL/min/kg |
| NC(=O)c1ncn([C@@H]2O[C@H](CO)[C@@H](O)[C@H]2O)n1 [RIBAVIRIN] | – | 1 | 45 h | 45 h | 5.2 mL/min/kg |
| COc1ccc2c3c1O[C@H]1C(=O)CC[C@@]4(O)[C@@H](C2)N(C)CC[C@]314 [OXYCODONE] | – | 0.55 | 6.8 h | 5.5 h | 6.1 mL/min/kg |
| CN1CCCC(n2nc(Cc3ccc(Cl)cc3)c3ccccc3c2=O)CC1 (centres undefined) [AZELASTINE] | – | 0.17 | 27 h | 22 h | 9 mL/min/kg |
| CC[C@H](OC(C)=O)C(C[C@H](C)N(C)C)(c1ccccc1)c1ccccc1 [LEVOMETHADYL ACETATE] | 8.3 L/kg | 0.2 | 26 h | – | 5.4 mL/min/kg |
| CC(C)=CCN1CC[C@]2(C)c3cc(O)ccc3C[C@H]1[C@H]2C [(+)-PENTAZOCINE] | 3.4 L/kg | 0.39 | 2.5 h | – | 23 mL/min/kg |
